Results reported in patent US20260250318A1, “COMPOSITIONS AND METHODS FOR CROSSING THE BLOOD BRAIN BARRIER” (VOYAGER THERAPEUTICS, INC., priority 2022, published 2026).

Tested on: brains, heart, liver, muscle, and DRG of the NHPs
Assay: Maturation of TTM-001 and TTM-002 capsids, NGS enrichment in NHP tissues
Type: in vivo
Excerpt: This Example describes maturation of the AAV9 capsid variants, TTM-001 (SEQ ID NO: 981 (amino acid) and 983 (DNA), comprising SEQ ID NO: 941 (encoded by SEQ ID NO: 942)) and TTM-002 (SEQ ID NO: 982 (amino acid) and 984 (DNA), comprising SEQ ID NO: […] (encoded by SEQ ID NO: 944)) in NHPs to further enhance their transduction and biodistribution in the central nervous system as well as other tissues, and evolve the AAV capsid variants to provide further cross-species compatibility. Two approaches were used to mature the TTM-001 and TTM-002 capsid sequences in order to randomize and mutate within and around the peptide insert comprised within loop IV of the capsid variant. […] In the first maturation approach, sets of three contiguous amino acids were randomized across the mutagenesis region in the TTM-001 and TTM-002 sequences, which spanned from position 450 to position 466, numbered according to SEQ ID NO: 981 and 982. In the second maturation approach, mutagenic primers were used to introduce point mutations at a low frequency, scattered across the mutagenesis region in the TTM-001 and TTM-002 sequences ranging from position 449 to position 466, numbered according to SEQ ID NO: 981 and 982. AAV capsid variants arising from each maturation approach for TTM-001 and TTM-002 were pooled together, for subsequent testing and characterization in NHPs.
The library of pooled matured AAV capsid variants generated using the first maturation approach and the second maturation approach for the TTM-001 and TTM-002 AAV capsid variants were injected into two NHPs. […] Following RNA recovery and RT-PCR amplification, a systematic NGS enrichment analysis was performed to calculate the fold enrichment ratio relative to an AAV9 control, and the peptides comprised within the variants were identified.
Following the RNA recovery and NGS analysis from the second maturation approach, approximately 680,000 capsid variants were identified. The 680,000 matured capsid variants were then filtered based on samples with a raw virus count greater than 10 and a coefficient of variance (CV) of less than 1, which was calculated for each peptide across the brain samples taken from the two NHPs. […] Using this filtering criteria, this led to approximately 64,000 matured capsid variants.

[1] = NHP DRG, NGS, relative to AAV9 control
[2] = NHP brain, NGS, relative to AAV9 control
[3] = NHP heart, NGS, relative to AAV9 control
[4] = NHP liver DNA, NGS, relative to AAV9 control
[5] = NHP liver RNA, NGS, TTM-001 and TTM-002 matured AAV capsid variants, relative to AAV9 control
[6] = NHP muscle, NGS, relative to AAV9 control

Sequence | Fold Enrichment relative to AAV9, DRG (NHP) [1] [fold] | Fold Enrichment relative to AAV9, Brain (NHP) [2] [fold] | Fold Enrichment relative to AAV9, Heart (NHP) [3] [fold] | Fold Enrichment relative to AAV9, Liver DNA (NHP) [4] [fold] | Fold Enrichment relative to AAV9, Liver RNA (NHP) [5] [fold] | Fold Enrichment relative to AAV9, Muscle (NHP) [6] [fold] | Fold Enrichment relative to AAV9, DRG (NHP) (NGS fold-enrichment, DRG, NHP, relative to AAV9) [fold] | Fold Enrichment relative to AAV9, Brain (NHP) (NGS fold-enrichment, brain, NHP, relative to AAV9) [fold] | Fold Enrichment relative to AAV9, Heart (NHP) (NGS fold-enrichment, heart, NHP, relative to AAV9) [fold] | Fold Enrichment relative to AAV9, Liver DNA (NHP) (NGS fold-enrichment, liver DNA, NHP, relative to AAV9) [fold] | Fold Enrichment relative to AAV9, Liver RNA (NHP) (NGS fold-enrichment, liver RNA, NHP, relative to AAV9) [fold] | Fold Enrichment relative to AAV9, Muscle (NHP) (NGS fold-enrichment, muscle, NHP, relative to AAV9) [fold]
KTINGSGSPHSVRCNQQT | 0.000 | 0.000 | 0.000 | 3.912 | 15.860 | 0.000 | – | – | – | – | – | –
KTINGSGSPHSVRYNQQT | 0.000 | 0.000 | 0.000 | 1.413 | 16.390 | 0.000 | – | – | – | – | – | –
KTINGSGSPHSWAPNQQT | 0.000 | 0.000 | 0.000 | 1.789 | 47.897 | 0.000 | – | – | – | – | – | –
KTINGSGSPHSWLKNQQT | 0.000 | 0.000 | 0.000 | 0.603 | 13.995 | 0.000 | – | – | – | – | – | –
KTINGSGSPHSYAFNQQT | 0.000 | 0.000 | 0.000 | 1.742 | 43.037 | 0.000 | – | – | – | – | – | –
KTINGSGSPHSYARNQQT | 0.000 | 0.000 | 0.000 | 0.996 | 11.131 | 0.000 | – | – | – | – | – | –
KTINGSGSPHSYLVNQQT | 0.000 | 0.000 | 0.000 | 1.267 | 17.766 | 0.000 | – | – | – | – | – | –
KTINGSGSPHSYMRNQQT | 0.000 | 0.000 | 0.000 | 2.293 | 20.007 | 0.000 | – | – | – | – | – | –
KTINGSGSPHSYTRNQQT | 0.000 | 0.000 | 0.000 | 1.986 | 14.535 | 0.000 | – | – | – | – | – | –
KTINGSGSPHSYYSNQQT | – | – | – | – | – | – | 0.000 | 0.000 | 0.000 | 2.856 | 10.680 | 0.000
KTINGSGSPHVNCQNQQT | 0.000 | 0.000 | 0.000 | 6.122 | 30.010 | 0.000 | – | – | – | – | – | –
KTINGSGSPHVPWQNQQT | 0.000 | 0.000 | 0.000 | 3.435 | 25.294 | 0.000 | – | – | – | – | – | –
KTINGSGSPHVYHQNQQT | 0.000 | 0.000 | 0.000 | 1.733 | 14.770 | 0.000 | – | – | – | – | – | –
KTINGSGSPHVYYQNQQT | 0.000 | 0.944 | 0.246 | 2.173 | 53.294 | 5.268 | – | – | – | – | – | –
KTINGSGSPHWSYQNQQT | 0.000 | 0.000 | 0.000 | 3.751 | 28.607 | 0.000 | – | – | – | – | – | –
KTINGSGSPHWVAQNQQT | 0.000 | 0.000 | 0.000 | 3.634 | 11.703 | 0.000 | – | – | – | – | – | –
KTINGSGSPHWVPQNQQT | 0.000 | 0.000 | 0.000 | 3.219 | 22.907 | 0.000 | – | – | – | – | – | –
KTINGSGSPHYGIQNQQT | 0.000 | 0.000 | 0.000 | 1.076 | 30.908 | 0.000 | – | – | – | – | – | –
KTINGSGSPHYRYQNQQT | 0.000 | 0.000 | 0.000 | 1.027 | 14.107 | 0.000 | – | – | – | – | – | –
KTINGSISPHCPAQNQQT | 0.000 | 0.000 | 0.000 | 0.556 | 24.932 | 0.000 | – | – | – | – | – | –
KTINGSLSPHFWAQNQQT | 0.000 | 0.000 | 0.000 | 2.041 | 43.190 | 0.000 | – | – | – | – | – | –
KTINGSRSPHAWAQNQQT (peptide inserted in AAV capsid) | 0.000 | 0.000 | 0.000 | 6.838 | 31.146 | 0.000 | – | – | – | – | – | –
